Data as given in patent US20250034150A1, “BTK INHIBITORS” (BIOGEN MA INC., priority 2021, published 2025).
pIC50: −log10 of the molar value. Where a name gives a salt, the structure may show the parent alone. Read-outs that look alike come from different tables or passages of the source.

Assays:
[1] = biological target: T1, BTK (Homo sapiens, UniProt Q06187); experiment: In Vitro BTK Kinase Assay: Btk-PolyGAT-LS Assay; format: biochemical; conditions: active BTK enzyme 0.25 nM, polyGAT 100 nM, 30 minutes, TRF readout; read-out: In Vitro BTK Kinase Assay IC50 Score
T1 construct: purchased Upstate 14-552
Method in brief: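 Active BTK at 0.25 nM phosphorylated 100 nM fluorescein-polyGAT peptide at 10 μM ATP for 30 minutes. Buffer was Tris pH 7.5 with MgCl2, DTT, Triton X-100 and casein, and reactions were stopped with EDTA. Phospho-peptide was detected by Tb-PY20 antibody TR-FRET, and IC50 came from a four-parameter fit normalized to DMSO and EDTA controls.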

[2] = tested on: CD69 expression on CD19+ B cells in human whole blood; experiment: In Vitro whole blood CD69 Assay; format: cell-based; conditions: B-cell, read-out: In Vitro HWB CD69 Assay IC50 Score
Method in brief: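 Heparinized healthy-donor human whole blood was preincubated with compound (0.1% DMSO) for 30 min at 37 °C. Stimulation used 0.1 µg/mL anti-IgD-dextran or 20 µg/mL rabbit F(ab′)2 anti-IgD for 18–22 h at 37 °C. CD69 on gated CD19+ B cells was then measured by flow cytometry.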

[3] = human heparinized whole blood, anti-human IgD stimulation overnight, CD19+ B cells, flow cytometry

T1 sequence (Q06187 whole entry): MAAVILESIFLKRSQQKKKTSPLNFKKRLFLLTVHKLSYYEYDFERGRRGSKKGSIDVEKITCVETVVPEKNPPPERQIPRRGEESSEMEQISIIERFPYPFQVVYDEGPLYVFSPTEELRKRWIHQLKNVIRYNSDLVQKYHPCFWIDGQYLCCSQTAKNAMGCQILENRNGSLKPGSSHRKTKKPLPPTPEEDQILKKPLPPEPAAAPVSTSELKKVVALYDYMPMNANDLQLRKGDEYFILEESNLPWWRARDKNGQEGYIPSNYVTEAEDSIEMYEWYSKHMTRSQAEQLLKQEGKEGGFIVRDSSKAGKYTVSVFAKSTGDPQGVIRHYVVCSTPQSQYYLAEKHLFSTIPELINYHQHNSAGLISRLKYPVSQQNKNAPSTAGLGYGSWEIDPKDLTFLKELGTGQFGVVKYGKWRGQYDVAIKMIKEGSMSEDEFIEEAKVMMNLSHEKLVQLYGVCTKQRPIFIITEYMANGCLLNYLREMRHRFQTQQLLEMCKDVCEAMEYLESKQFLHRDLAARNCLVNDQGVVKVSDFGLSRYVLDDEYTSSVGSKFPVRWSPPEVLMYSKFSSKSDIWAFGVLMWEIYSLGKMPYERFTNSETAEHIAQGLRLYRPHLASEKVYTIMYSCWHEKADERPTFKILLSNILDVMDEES

Row | pIC50 [1] | pIC50 [2, 3] | SMILES | pIC50 ([2]; Homo sapiens)
1 | 6.00 to 8.00 | 5.00 to 6.00 | CC(C)(C)n1nnc(C(=O)NCc2ccc(-c3nc(N4CCOCC4)cn4nccc34)cc2)n1 [Example 25, 2-(tert-butyl)-N-(4-(6-morpholinopyrazolo[1,5-a]pyrazin-4-yl)benzyl)-2H-tetrazole-5-carboxamide] | –
2 | 8.00 to 9.00 | 5.00 to 6.00 | Cn1cc(-c2cn3nccc3c(-c3ccc(CNC(=O)c4nc(C(C)(C)C)co4)cc3F)n2)cn1 [Example 110, 4-(tert-butyl)-N-(3-fluoro-4-(6-(1-methyl-1H-pyrazol-4-yl)pyrazolo[1,5-a]pyrazin-4-yl)benzyl)oxazole-2-carboxamide] | –
3 | 8.00 to 9.00 | 5.00 to 6.00 | Cn1cc(-c2cn3nccc3c(N3CC[C@H](CNC(=O)c4coc(C(C)(C)C)n4)[C@H](F)C3)n2)cn1 [Example 153, 2-(tert-butyl)-N-(((3S,4R)-3-fluoro-1-(6-(1-methyl-1H-pyrazol-4-yl)pyrazolo[1,5-a]pyrazin-4-yl)piperidin-4-yl)methyl)oxazole-4-carboxamide] | –
4 | > 9.00 | > 6.00 | Cn1cc(-c2cn3nccc3c(-c3ccc(CNC(=O)c4cnn(C(C)(C)C)c4)c(F)c3)n2)cn1 [Example 10, 1-(tert-butyl)-N-(2-fluoro-4-(6-(1-methyl-1H-pyrazol-4-yl)pyrazolo[1,5-a]pyrazin-4-yl)benzyl)-1H-pyrazole-4-carboxamide] | –
5 | > 9.00 | > 6.00 | Cc1c(CNC(=O)c2noc(C(C)(C)C)n2)ccc(-c2nc(-c3cnn(C)c3)cn3nccc23)c1F [Example 81, 5-(tert-butyl)-N-(3-fluoro-2-methyl-4-(6-(1-methyl-1H-pyrazol-4-yl)pyrazolo[1,5-a]pyrazin-4-yl)benzyl)-1,2,4-oxadiazole-3-carboxamide] | –
6 | 8.00 to 9.00 | 5.00 to 6.00 | Cc1cc(-c2nc(N3CCOCC3)cn3nccc23)ccc1CNC(=O)c1cn(C(C)(C)C)nn1 [Example 120, 1-(tert-butyl)-N-(2-methyl-4-(6-morpholinopyrazolo[1,5-a]pyrazin-4-yl)benzyl)-1H-1,2,3-triazole-4-carboxamide] | –
7 | > 9.00 | > 6.00 | Cc1cc(-c2nc(-c3cnn(C)c3)cn3nccc23)ccc1CNC(=O)c1nnn(C(C)(C)C)n1 [Example 15, 2-(tert-butyl)-N-(2-methyl-4-(6-(1-methyl-1H-pyrazol-4-yl)pyrazolo[1,5-a]pyrazin-4-yl)benzyl)-2H-tetrazole-5-carboxamide] | –
8 | > 9.00 | > 6.00 | Cn1cc(-c2cn3nccc3c(-c3ccc(CNC(=O)c4nc(C(C)(C)C)no4)cc3F)n2)cn1 [Example 108, 3-(tert-butyl)-N-(3-fluoro-4-(6-(1-methyl-1H-pyrazol-4-yl)pyrazolo[1,5-a]pyrazin-4-yl)benzyl)-1,2,4-oxadiazole-5-carboxamide] | –
9 | > 9.00 | 5.00 to 6.00 | Cn1cc(-c2cn3nccc3c(-c3ccc(CNC(=O)c4cnn(C(C)(C)C)n4)cc3)n2)cn1 [Example 21, 2-(tert-butyl)-N-(4-(6-(1-methyl-1H-pyrazol-4-yl)pyrazolo[1,5-a]pyrazin-4-yl)benzyl)-2H-1,2,3-triazole-4-carboxamide] | –
10 | > 9.00 | > 6.00 | Cn1cc(-c2cn3nccc3c(-c3ccc(CNC(=O)c4noc(C(C)(C)C)n4)c(F)c3)n2)cn1 [Example 117, 5-(tert-butyl)-N-(2-fluoro-4-(6-(1-methyl-1H-pyrazol-4-yl)pyrazolo[1,5-a]pyrazin-4-yl)benzyl)-1,2,4-oxadiazole-3-carboxamide] | –
11 | 8.00 to 9.00 | 5.00 to 6.00 | Cn1cc(-c2cn3nccc3c(-c3ccc(CNC(=O)c4coc(C(C)(C)C)n4)cc3F)n2)cn1 [Example 109] | –
12 | > 9.00 | > 6.00 | Cn1cc(-c2cn3nccc3c(-c3ccc(CNC(=O)c4cn(C(C)(C)C)nn4)cc3)n2)cn1 [Example 4, 1-(tert-butyl)-N-(4-(6-(1-methyl-1H-pyrazol-4-yl)pyrazolo[1,5-a]pyrazin-4-yl)benzyl)-1H-1,2,3-triazole-4-carboxamide] | –
13 | > 9.00 | > 6.00 | Cn1cc(-c2cc3nccn3c(-c3ccc(CNC(=O)c4nc(C(C)(C)C)no4)cc3)n2)cn1 [Example 64, 3-(tert-butyl)-N-(4-(7-(1-methyl-1H-pyrazol-4-yl)imidazo[1,2-c]pyrimidin-5-yl)benzyl)-1,2,4-oxadiazole-5-carboxamide] | –
14 | 8.00 to 9.00 | 5.00 to 6.00 | Cn1cc(-c2cn3nccc3c(N3CCC(C)(CNC(=O)c4nc(C(C)(C)C)no4)CC3)n2)cn1 [Example 47, 3-(tert-butyl)-N-((4-methyl-1-(6-(1-methyl-1H-pyrazol-4-yl)pyrazolo[1,5-a]pyrazin-4-yl)piperidin-4-yl)methyl)-1,2,4-oxadiazole-5-carboxamide] | –
15 | 6.00 to 8.00 | 5.00 to 6.00 | CN1CCN(c2cn3nccc3c(-c3ccc(CNC(=O)c4cn(C(C)(C)C)nn4)c(F)c3)n2)CC1 [Example 128, 1-(tert-butyl)-N-(2-fluoro-4-(6-(4-methylpiperazin-1-yl)pyrazolo[1,5-a]pyrazin-4-yl)benzyl)-1H-1,2,3-triazole-4-carboxamide trifluoroacetate] | –

Continued, compound first:

Row | SMILES | pIC50 [1] | pIC50 [2, 3] | pIC50 ([2]; Homo sapiens)
16 | Cn1cc(-c2cn3nccc3c(N3CC[C@@H](CNC(=O)c4noc(C(C)(C)C)n4)[C@@H](F)C3)n2)cn1 (single isomer, unassigned) [Example 156] | 8.00 to 9.00 | > 6.00 | –
17 | CC1CN(c2nc(-c3cnn(C)c3)cn3nccc23)CCC1CNC(=O)c1noc(C2(C)CC2)n1 (centres unmarked) [Example 149, N-((3-methyl-1-(6-(1-methyl-1H-pyrazol-4-yl)pyrazolo[1,5-a]pyrazin-4-yl)piperidin-4-yl)methyl)-5-(1-methylcyclopropyl)-1,2,4-oxadiazole-3-carboxamide] | 8.00 to 9.00 | 5.00 to 6.00 | –
18 | Cn1cc(-c2cn3nccc3c(-c3ccc(CNC(=O)c4noc(C5(C)CC5)n4)cc3)n2)cn1 [Example 5, N-(4-(6-(1-methyl-1H-pyrazol-4-yl)pyrazolo[1,5-a]pyrazin-4-yl)benzyl)-5-(1-methylcyclopropyl)-1,2,4-oxadiazole-3-carboxamide] | > 9.00 | > 6.00 | –
19 | Cc1cc(-c2nc(-c3cnn(C)c3)cc3nccn23)ccc1CN1Cc2nc(C(C)(C)C)sc2C1=O [Example 38, 2-(tert-butyl)-5-(2-methyl-4-(7-(1-methyl-1H-pyrazol-4-yl)imidazo[1,2-c]pyrimidin-5-yl)benzyl)-4,5-dihydro-6H-pyrrolo[3,4-d]thiazol-6-one] | > 9.00 | 5.00 to 6.00 | –
20 | Cc1cc(-c2nccn3nccc23)ccc1CNC(=O)c1noc(C(C)(C)C)n1 [Example 85, 5-(tert-butyl)-N-(2-methyl-4-(pyrazolo[1,5-a]pyrazin-4-yl)benzyl)-1,2,4-oxadiazole-3-carboxamide] | 8.00 to 9.00 | 5.00 to 6.00 | –
21 | C[C@@H]1CN(c2nc(-c3cnn(C)c3)cn3nccc23)CC[C@@H]1CNC(=O)c1noc(C2(C)CC2)n1 (single isomer, unassigned) [Example 146] | 8.00 to 9.00 | 5.00 to 6.00 | –
22 | Cn1cc(-c2cn3ncnc3c(N3CCC(CNC(=O)c4nnn(C(C)(C)C)n4)CC3)n2)cn1 [Example 72, 2-(tert-butyl)-N-((1-(6-(1-methyl-1H-pyrazol-4-yl)-[1,2,4]triazolo[1,5-a]pyrazin-8-yl)piperidin-4-yl)methyl)-2H-tetrazole-5-carboxamide] | 8.00 to 9.00 | 5.00 to 6.00 | –
23 | Cn1cc(-c2cn3nccc3c(N3CC[C@@H](CNC(=O)c4noc(C(C)(C)C)n4)C(F)(F)C3)n2)cn1 (single isomer, unassigned) [Example 158] | > 9.00 | > 6.00 | –
24 | Cn1cc(-c2cc(-c3ccc(CNC(=O)c4noc(C5(C)CC5)n4)c(F)c3)c3ccnn3c2)cn1 [Example 67, N-(2-fluoro-4-(6-(1-methyl-1H-pyrazol-4-yl)pyrazolo[1,5-a]pyridin-4-yl)benzyl)-5-(1-methylcyclopropyl)-1,2,4-oxadiazole-3-carboxamide] | > 9.00 | – | > 6.00
25 | Cn1cc(-c2cn3nccc3c(-c3ccc(CNC(=O)c4cn(C(C)(C)C)nn4)c(F)c3F)n2)cn1 [Example 93, 1-(tert-butyl)-N-(2,3-difluoro-4-(6-(1-methyl-1H-pyrazol-4-yl)pyrazolo[1,5-a]pyrazin-4-yl)benzyl)-1H-1,2,3-triazole-4-carboxamide] | > 9.00 | > 6.00 | –
26 | Cn1cc(-c2cn3nccc3c(-c3ccc(CNC(=O)c4cnn(C(C)(C)C)n4)cc3F)n2)cn1 [Example 113, 2-(tert-butyl)-N-(3-fluoro-4-(6-(1-methyl-1H-pyrazol-4-yl)pyrazolo[1,5-a]pyrazin-4-yl)benzyl)-2H-1,2,3-triazole-4-carboxamide] | 8.00 to 9.00 | 5.00 to 6.00 | –
27 | Cn1cc(-c2cn3nccc3c(-c3ccc(CNC(=O)c4nc(C(C)(C)C)no4)c(F)c3F)n2)cn1 [Example 89, 3-(tert-butyl)-N-(2,3-difluoro-4-(6-(1-methyl-1H-pyrazol-4-yl)pyrazolo[1,5-a]pyrazin-4-yl)benzyl)-1,2,4-oxadiazole-5-carboxamide] | > 9.00 | – | > 6.00
28 | Cn1cc(-c2cn3nccc3c(-c3cc(F)c(CNC(=O)c4nc(C(C)(C)C)no4)cc3F)n2)cn1 [Example 94, 3-(tert-butyl)-N-(2,5-difluoro-4-(6-(1-methyl-1H-pyrazol-4-yl)pyrazolo[1,5-a]pyrazin-4-yl)benzyl)-1,2,4-oxadiazole-5-carboxamide] | > 9.00 | > 6.00 | –
